How the values were obtained:
[1] = tested on: Sprague-Dawley rats; assay: Forced Swim Test; assay type: in vivo; details: diet
Text: Sprague-Dawley rats are fed diet supplemented with Mg-DHA, Mg Citrate, or DHA. […] Various established parameters of antidepressant activity including reduced immobility time, increased swimming, and increased climbing behavior are quantitated to assess the antidepressant activity.
Sprague-Dawley rats are fed diet supplemented with Mg-DHA-LysoPC, Mg Citrate, or DHA-lysoPC. […] Various established parameters of antidepressant activity including reduced immobility time, increased swimming, and increased climbing behavior are quantitated to assess the antidepressant activity.
Sprague-Dawley rats are fed diet supplemented with Mg-EPA, Mg Citrate, or EPA. […] Various established parameters of antidepressant activity including reduced immobility time, increased swimming, and increased climbing behavior are quantitated to assess the antidepressant activity.
(§1) Sprague-Dawley rats are fed diet supplemented with Zn-DHA, Zinc gluconate, or DHA. On Zn-DHA or Zinc gluconate supplemented diet, rats consume about 1 mg/kg body weight/day of elemental zinc, on a feeding schedule so as to maintain 85% of its free-feeding weight. […] Various established parameters of antidepressant activity including reduced immobility time, increased swimming, and increased climbing behavior are quantitated to assess the antidepressant activity.
as §1, with “Zn-DHA-lysoPC, zinc” for “Zn-DHA, Zinc”, “Zn-DHA-lysoPC” for “Zn-DHA”, “zinc” for “Zinc”
as §1, with “Zn-EPA, zinc” for “Zn-DHA, Zinc”, “EPA.” for “DHA.”, “Zn-EPA” for “Zn-DHA”, “zinc” for “Zinc”
Sprague-Dawley rats are fed diet supplemented with Li-DHA, lithium carbonate, or DHA. […] Various established parameters of antidepressant activity including reduced immobility time, increased swimming, and increased climbing behavior are quantitated to assess the antidepressant activity.
Sprague-Dawley rats are fed diet supplemented with Li-DHA-lysoPC, lithium carbonate, or DHA. […] Various established parameters of antidepressant activity including reduced immobility time, increased swimming, and increased climbing behavior are quantitated to assess the antidepressant activity.
Sprague-Dawley rats are fed diet supplemented with Li-EPA, lithium carbonate, or EPA. […] Various established parameters of antidepressant activity including reduced immobility time, increased swimming, and increased climbing behavior are quantitated to assess the antidepressant activity.

[2] = tested on: rats; assay: tail flick test; assay type: in vivo; details: diet
Protocol: On Zn-EPA or zinc gluconate supplemented diet, rats consume about 1 mg/kg body weight/day of elemental zinc, on a feeding schedule so as to maintain 85% of its free-feeding weight.

[3] = tested on: Patients presenting symptoms of migraine; assay: migraine pain relief on visual analog scale (VAS); assay type: in vivo, human; details: reviewed after 4 hours
Protocol: Patients presenting symptoms of migraine are prescribed Zn-DHA or zinc gluconate capsules formulated to provide a daily dosage of 30 mg of elemental zinc. The symptoms of migraine are reviewed after 4 hours. […] For each group of patients, Excedrin is prescribed as rescue medicine.
Patients presenting symptoms of migraine are prescribed Zn-DHA-LysoPC or zinc gluconate formulated to provide a daily dosage of 30 mg of elemental zinc. The symptoms of migraine are reviewed after 4 hours. […] For each group of patients, Excedrin is prescribed as rescue medicine.
Patients presenting symptoms of migraine are prescribed Zn-EPA capsules formulated to provide a daily dosage of 30 mg of elemental Zn. The symptoms of migraine are reviewed after 4 hours. […] For each group of patients, Excedrin is prescribed as rescue medicine.

[4] = tested on: Patients presenting early symptoms of stroke; assay: Stroke Rehabilitation Assessment of Movement (STREAM); assay type: in vivo, human; details: with standard of care
Protocol: Patients presenting early symptoms of stroke, in addition to being provided standard of care for stroke, are prescribed Mg-DHA or Mg Citrate capsules formulated to provide a daily dose of 150 mg of elemental magnesium or DHA capsules for two weeks when recovery from stroke is assessed.
Patients presenting early symptoms of stroke, in addition to being provided standard of care for stroke, are prescribed Mg-DHA-LysoPC or Mg Citrate capsules prepared and formulated to provide 150 mg of elemental magnesium, or DHA-LysoPC capsules for two weeks when recovery is assessed.
Patients presenting early symptoms of stroke, in addition to being provided standard of care for stroke, are prescribed Mg-EPA or Mg Citrate capsules formulated to provide 150 mg of elemental magnesium, or EPA capsules for two weeks when recovery from stroke is assessed.
Patients presenting early symptoms of stroke, in addition to being provided standard of care for stroke, are prescribed either Zn-DHA or zinc gluconate capsules formulated to provide a daily dosage of 30 mg of elemental Zn, or DHA capsules for two weeks when recovery from stroke is assessed.
Patients presenting early symptoms of stroke, in addition to being provided standard of care for stroke, are prescribed either Zn-DHA-LysoPC or zinc gluconate capsules that provide a daily dosage of 30 mg of elemental Zn, or DHA-LysoPC capsules for two weeks when recovery is assessed.
Patients presenting early symptoms of stroke, in addition to being provided standard of care for stroke, are prescribed either Zn-EPA or zinc gluconate capsules formulated to provide a daily dosage of 30 mg of elemental Zn, or EPA capsules for two weeks when recovery from stroke is assessed.

[5] = about 1 mg/kg body weight/day elemental zinc, compared with the fatty acid alone or zinc gluconate
[6] = about 1 mg/kg body weight/day elemental zinc, days 0, 7, 14, 21, compared with zinc gluconate or the fatty acid alone
[7] = 30 mg elemental zinc daily, compared with the fatty acid alone or zinc gluconate
[8] = 30 mg elemental Zn daily for two weeks, compared with the fatty acid alone or zinc gluconate
[9] = about 50 mg/kg/day elemental Mg, compared with the fatty acid alone or Mg Citrate
[10] = about 50 mg/Kg/day elemental Mg, days 0, 7, 14, 21, compared with Mg Citrate or the fatty acid alone
[11] = 150 mg elemental magnesium daily, compared with the fatty acid alone or Mg Citrate
[12] = 150 mg elemental magnesium daily for two weeks

Structure (SMILES)	immobility time [1, 5]	swimming and climbing behavior [1, 5]	latency of tail flick reflex [2, 6]	pain relief on a visual analog scale (VAS) [3, 7]	STREAM scores, recovery from stroke [4, 8]	immobility time [1, 9]	swimming and climbing behavior [1, 9]	latency of tail flick reflex [2, 10]	pain relief on a visual analog scale (VAS) [3, 11]	STREAM scores, recovery from stroke [4, 12]
CC/C=C\C/C=C\C/C=C\C/C=C\C/C=C\C/C=C\CCC(=O)[O-].CC/C=C\C/C=C\C/C=C\C/C=C\C/C=C\C/C=C\CCC(=O)[O-].[Zn+2] [Zn-DHA]	reduction	significant increase	Statistically significant increased latency	significant pain relief	statistically significant improvement					
CC/C=C\C/C=C\C/C=C\C/C=C\C/C=C\C/C=C\CCC(=O)[O-].CC/C=C\C/C=C\C/C=C\C/C=C\C/C=C\C/C=C\CCC(=O)[O-].[Mg+2] [Mg-DHA]						reduction	significant increase	Statistically significant increased latency	significant pain relief	statistically significant improvement
CC/C=C\C/C=C\C/C=C\C/C=C\C/C=C\CCCC(=O)[O-].CC/C=C\C/C=C\C/C=C\C/C=C\C/C=C\CCCC(=O)[O-].[Zn+2] [Zn-EPA]	reduction	significant increase	Statistically significant increased latency	significant pain relief	statistically significant improvement					
CC/C=C\C/C=C\C/C=C\C/C=C\C/C=C\CCCC(=O)[O-].CC/C=C\C/C=C\C/C=C\C/C=C\C/C=C\CCCC(=O)[O-].[Mg+2] [Mg-EPA]						reduction	significant increase	Statistically significant increased latency	significant pain relief	statistically significant improvement

Reference: patent US20130123355A1, “Fatty acids and metal ions compositions and uses thereof” (priority 2011, published 2013)
